Structures can show the parent of a compound that is named as a salt.
System: Phosphorylated Ribosomal Protein S6 (RPS6) in THP-1 cells
Assay: THP-1 RPS6 ELISA Assay
Assay type: cell-based, Human
Conditions: Homo sapiens, THP-1, read-out: PI3Kγ_THP1_RPS6_ELISA IC50 (nM)
Procedure: To measure the Phosphorylated Ribosomal Protein S6 (RPS6) in cell lysates, THP-1 cells (Human Acute Monocytic Leukemia) are purchased from ATCC (Manassas, Va.) and maintained in RPMI with 10% FBS (Gibco/Life Technologies, Carlsbad, Calif.). For the assay, THP-1 cells are serum starved overnight in RPMI, then plated in RPMI (2×10^5 cells/well in 90 μL) into 96-well flat-bottom tissue culture treated plates (Corning, Corning, N.Y.), in the presence or absence of a concentration range of test compounds. Covered plates are incubated for 2 hours at 37° C., 5% CO2 then treated with or without 10 nM MCP-1(MYBioSource, San Diego, Calif.) for 15 minutes at 37° C., 5% CO2. Plates are centrifuged at 1600 RPM and supernatants are removed. Cells are lysed in Lysis Buffer (Cell Signaling, Danvers, Mass.) with Protease Inhibitor (Calbiochem/EMD, Germany), PMSF (Sigma, St Louis Mo.), HALTS (Thermo Fisher, Rockford, Ill.) for 30 min on wet ice. Cell lysates are frozen at −80 OC before testing. The lysates are tested in the Human/Mouse/Rat Phospho-RPS6 ELISA (R&D Systems, Inc. Minn, Minn.). The plate is measured using a microplate reader (SpectraMax M5—Molecular Devices, LLC Sunnyvale, Calif.) set to 450 nm with a wavelength correction of 540. IC50 determination is performed by fitting the curve of inhibitor percent inhibition versus the log of the inhibitor concentration using the GraphPad Prism 5.0 software.

Compound	IC50 [nM]
Cc1ccc(C(O)(C(N)=O)C(F)(F)F)cc1-c1cnc(N)c(N2CCN(c3ccccn3)CC2)n1 (stereo not drawn) [Example 117, 2-(3-(5-amino-6-(4-(pyridin-2-yl)piperazin-1-yl)pyrazin-2-yl)-4-methylphenyl)-3,3,3-trifluoro-2-hydroxypropanamide trifluoroacetate]	< 100

Same assay, conditions: Homo sapiens; Table A1; THP-1 cells, 10 nM MCP-1; read-out: PI3Kγ_THP1_RPS6_ELISA IC50

IC50 [nM]	Compound
< 100	CC[C@@H](CC#N)NC(=O)c1nc(-c2cc(C(O)(C(N)=O)C(F)(F)F)ccc2C)cnc1N (stereo partly drawn) [Example 20, 3-amino-6-(5-(3-amino-1,1,1-trifluoro-2-hydroxy-3-oxopropan-2-yl)-2-methylphenyl)-N-((S)-1-cyanobutan-2-yl)pyrazine-2-carboxamide trifluoroacetate]
< 100	Cc1ccc(C(O)(C(N)=O)C(F)(F)F)cc1-c1cnc(N)c(C(=O)N[C@@H]2CCCOC2)n1 (stereo partly drawn) [Example 9, 3-amino-6-(5-(3-amino-1,1,1-trifluoro-2-hydroxy-3-oxopropan-2-yl)-2-methylphenyl)-N-((R)-tetrahydro-2H-pyran-3-yl)pyrazine-2-carboxamide trifluoroacetate]
< 100	Cc1ccc(C(O)(C(N)=O)C(F)(F)F)cc1-c1cnc(N)c(C(=O)NCC(C)(C)O)n1 (stereo not drawn) [Example 1, 3-Amino-6-(5-(3-amino-1,1,1-trifluoro-2-hydroxy-3-oxopropan-2-yl)-2-methylphenyl)-N-(2-hydroxy-2-methylpropyl)pyrazine-2-carboxamide]
< 100	Cc1ccc(C(O)(C(N)=O)C(F)(F)F)cc1-c1cnc(N)c(C(=O)NC(C)(C)CO)n1 (stereo not drawn) [Example 13, 3-Amino-6-(5-(3-amino-1,1,1-trifluoro-2-hydroxy-3-oxopropan-2-yl)-2-methylphenyl)-N-(1-hydroxy-2-methylpropan-2-yl)pyrazine-2-carboxamide]
< 100	Cc1ccc(C(O)(C(N)=O)C(F)F)cc1-c1cnc(N)c(C(=O)NCC2(C#N)CC2)n1 (stereo not drawn) [Example 33, 3-amino-6-(5-(1-amino-3,3-difluoro-2-hydroxy-1-oxopropan-2-yl)-2-methylphenyl)-N-((1-cyanocyclopropyl)methyl)pyrazine-2-carboxamide]
< 100	Cc1ccc(C(O)(C(N)=O)C(F)(F)F)cc1-c1cnc(N)c(C(=O)NCC2(C#N)CCC2)n1 (stereo not drawn) [Example 16, 3-amino-6-(5-(3-amino-1,1,1-trifluoro-2-hydroxy-3-oxopropan-2-yl)-2-methylphenyl)-N-((1-cyanocyclobutyl)methyl)pyrazine-2-carboxamide trifluoroacetate]
< 100	Cc1ccc(C(O)(C(N)=O)C(F)(F)F)cc1-c1cnc(N)c(C(=O)NC23CCC(C#N)(C2)C3)n1 (stereo not drawn) [Example 24, 3-amino-6-(5-(3-amino-1,1,1-trifluoro-2-hydroxy-3-oxopropan-2-yl)-2-methylphenyl)-N-(4-cyanobicyclo[2.1.1]hexan-1-yl)pyrazine-2-carboxamide trifluoroacetate]
< 100	Cc1ccc(C(O)(C(N)=O)C(F)(F)F)cc1-c1cnc(N)c(C(=O)NC2CC3CCC2O3)n1 (single isomer, unassigned) [Example 29, 3-amino-6-(5-(3-amino-1,1,1-trifluoro-2-hydroxy-3-oxopropan-2-yl)-2-methylphenyl)-N-(7-oxabicyclo[2.2.1]heptan-2-yl)pyrazine-2-carboxamide]

Same assay, conditions: Homo sapiens; Table A2; THP-1 cells, 10 nM MCP-1; read-out: PI3Kγ_THP1_RPS6_ELISA IC50

IC50 [nM]	Compound
< 100	Cc1ccc(C(O)(C(N)=O)C(F)(F)F)cc1-c1cnc(N)c(C#Cc2cncnc2)n1 (stereo not drawn) [Example 56, 2-(3-(5-amino-6-(pyrimidin-5-ylethynyl)pyrazin-2-yl)-4-methylphenyl)-3,3,3-trifluoro-2-hydroxypropanamide]
< 100	Cc1ccc(C(O)(C(N)=O)C(F)(F)F)cc1-c1cnc(N)c(C#Cc2cnccn2)n1 (stereo not drawn) [Example 57, 2-(3-(5-amino-6-(pyrazin-2-ylethynyl)pyrazin-2-yl)-4-methylphenyl)-3,3,3-trifluoro-2-hydroxypropanamide]
< 100	Cc1ccc(C(O)(C(N)=O)C(F)(F)F)cc1-c1cnc(N)c(C#Cc2cccc(F)c2)n1 (stereo not drawn) [Example 61, 2-(3-(5-amino-6-((3-fluorophenyl)ethynyl)pyrazin-2-yl)-4-methylphenyl)-3,3,3-trifluoro-2-hydroxypropanamide]

Same assay, conditions: Homo sapiens; Table A3; THP-1 cells, 10 nM MCP-1; read-out: PI3Kγ_THP1_RPS6_ELISA IC50

Compound	IC50 [nM]
Cc1ccc(C(O)(C(N)=O)C(F)(F)F)cc1-c1cnc(N)c(-c2ccnc(CO)c2)n1 (stereo not drawn) [Example 85, 2-(3-(5-amino-6-(2-(hydroxymethyl)pyridin-4-yl)pyrazin-2-yl)-4-methylphenyl)-3,3,3-trifluoro-2-hydroxypropanamide bistrifluoroacetate]	< 500
Cc1ccc(C(O)(C(N)=O)C(F)(F)F)cc1-c1cnc(N)c(-c2cnc(C3CC3)s2)n1 (stereo not drawn) [Example 84, 2-(3-(5-amino-6-(2-cyclopropylthiazol-5-yl)pyrazin-2-yl)-4-methylphenyl)-3,3,3-trifluoro-2-hydroxypropanamide trifluoroacetate]	< 500
CC(=O)NCC(O)(c1ccc(C)c(-c2cnc(N)c(-c3cnn(CC(F)(F)F)c3)n2)c1)C(F)(F)F (stereo not drawn) [Example 104, N-(2-(3-(5-amino-6-(1-(2,2,2-trifluoroethyl)-1H-pyrazol-4-yl)pyrazin-2-yl)-4-methylphenyl)-3,3,3-trifluoro-2-hydroxypropyl)acetamide trifluoroacetate]	< 100
Cc1ccc(C(O)(C(N)=O)C(F)(F)F)cc1-c1cnc(N)c(-c2ccc(B(O)O)cc2)n1 (stereo not drawn) [Example 97, (4-(3-Amino-6-(5-(3-amino-1,1,1-trifluoro-2-hydroxy-3-oxopropan-2-yl)-2-methylphenyl)pyrazin-2-yl)phenyl)boronic acid]	< 500

Same assay, conditions: Homo sapiens; Table A4; THP-1 cells, 10 nM MCP-1; cells given with + symbol; read-out: PI3Kγ_THP1_RPS6_ELISA IC50

IC50 [nM]	Compound
< 100	CC(=O)N1CCN(c2nc(-c3cc(C(O)(C(N)=O)C(F)(F)F)ccc3C)cnc2N)CC1 (stereo not drawn) [Example 114, 2-(3-(6-(4-acetylpiperazin-1-yl)-5-aminopyrazin-2-yl)-4-methylphenyl)-3,3,3-trifluoro-2-hydroxypropanamide trifluoroacetate]
< 100	Cc1ccc(C(O)(C(N)=O)C(F)(F)F)cc1-c1cnc(N)c(N2CCN(c3ccccc3C#N)CC2)n1 (stereo not drawn) [Example 122, 2-(3-(5-amino-6-(4-(2-cyanophenyl)piperazin-1-yl)pyrazin-2-yl)-4-methylphenyl)-3,3,3-trifluoro-2-hydroxypropanamide trifluoroacetate]
< 100	Cc1ccc(C(O)(C(N)=O)C(F)(F)F)cc1-c1cnc(N)c(N2CCN(c3nccnc3C#N)CC2)n1 (stereo not drawn) [Example 128, 2-(3-(5-amino-6-(4-(3-cyanopyrazin-2-yl)piperazin-1-yl)pyrazin-2-yl)-4-methylphenyl)-3,3,3-trifluoro-2-hydroxypropanamide trifluoroacetate]

Same assay, conditions: Homo sapiens; Table A4; THP-1 cells, 10 nM MCP-1; read-out: PI3Kγ_THP1_RPS6_ELISA IC50

IC50 [nM]	Compound
< 500	Cc1ccc(C(O)(C(N)=O)C(F)(F)F)cc1-c1cnc(N)c(N2CCN(c3ccc(C#N)cc3)CC2)n1 (stereo not drawn) [Example 123, 2-(3-(5-amino-6-(4-(4-cyanophenyl)piperazin-1-yl)pyrazin-2-yl)-4-methylphenyl)-3,3,3-trifluoro-2-hydroxypropanamide trifluoroacetate]

Same assay, conditions: Table A1; THP-1 cells, 10 nM MCP-1; read-out: PI3Kγ_THP1_RPS6_ELISA IC50

IC50 [nM]	Compound
< 100	Cc1ccc(C(O)(C(N)=O)C(F)(F)F)cc1-c1cnc(N)c(C(=O)NC2CC3CCC2O3)n1 (single isomer, unassigned) [Example 30, 3-amino-6-(5-(3-amino-1,1,1-trifluoro-2-hydroxy-3-oxopropan-2-yl)-2-methylphenyl)-N-(7-oxabicyclo[2.2.1]heptan-2-yl)pyrazine-2-carboxamide]
